Here are results for one compound from patent publication US11440939B2, “Anticancer peptides” (IDP DISCOVERY PHARMA, S.L., priority 2017, dated 2022).

The test system of data set [1] is NCI-H524. Type of data set: cell-based. The following applies: 72 h. The procedure: NCI-H524, lung (small cell lung cancer, SCLC), ATCC-CRL-5831;
(§1) Cell line MCF-7 was cultured in incubator under CO2 (6%) at 37° C. in DMEM high glucose (Dulbecco's Modified Eagle Solution, Gibco-BRL 31966-21) medium with 10% fetal bovine serum inactivated (FBS) (Gibco-BRL 10106-169). Cell lines HL-60, NCI-H524, NCI-H526, NCI-H69, NCI-H82, NCI-H187 and H5B were cultured in an incubator at 37° C. in RPMI-1640 (Sigma R8758) medium with 10% of fetal bovine serum inactivated (FBS) and 2 mM glutamine (Sigma G7513). Cell line NCI-H510A was cultured in incubator in F12K medium with 10% of fetal bovine serum inactivated (FBS). Cell line GBM-18 and GBM-27 were cultured in incubator under CO2 (6%) at 37° C. in complete medium (Neurobasal+B27+Glutamax+Growth factors).
During the amplification step and the assays, adherent cells were rinsed with DPBS (Dulbecco's Phosphate Buffered Saline, Sigma D1283) three times and afterward treated for 5 minutes with trypsin ([…]) (Gibco-BRL, 15400054) in solution of DPBS at 37° C., and, once detached, transferred in the culturing medium. No-adherent cells were centrifuged and transferred in the culturing medium. Cells were counted in a Neubauer chamber after labelling with Tripan-Blue. […]
(§2) Cells were incubated during 72 h in incubator under CO2 atmosphere at 37° C. Cell viability was measured by means of MTT (3-(4,5-dimethylthiazol-2-yl)-2,5-diphenyltetrazolium bromide) assay, Alamar Blue® (Biosource DAL1100) and Hexosaminidase activity test, consecutively, following manufacturer instructions.
MTT: 1. […] Absorbance at 570 nm was finally measured.
Alamar Blue: 10 μl Alamar Blue solution was added to each well and the plates were incubated for […] in the incubator. Fluorescence ratio at 535/590 (excitation/emission) was measured in Cytofluor (Millipore) fluorimeter. Blank control was determined by lysis of untreated cells with con 2% of Triton X100, right before adding Alamar Blue solution. […]

For data set [2], the system named is GBM-27. Type of data set: cell-based. How it is done:
GMB-27, epithelial (glioblastoma, GMB), from surgical specimens from patients;
(§3) Cell line MCF-7 was cultured in incubator under CO2 (6%) at 37° C. in DMEM high glucose (Dulbecco's Modified Eagle Solution, Gibco-BRL 31966-21) medium with 10% fetal bovine serum inactivated (FBS) (Gibco-BRL 10106-169). Cell lines HL-60, NCI-H524, NCI-H526, NCI-H69, NCI-H82, NCI-H187 and H5B were cultured in an incubator at 37° C. in RPMI-1640 (Sigma R8758) medium with 10% of fetal bovine serum inactivated (FBS) and 2 mM glutamine (Sigma G7513). Cell line NCI-H510A was cultured in incubator in F12K medium with 10% of fetal bovine serum inactivated (FBS). […]
During the amplification step and the assays, adherent cells were rinsed with DPBS (Dulbecco's Phosphate Buffered Saline, Sigma D1283) three times and afterward treated for 5 minutes with trypsin ([…]) (Gibco-BRL, 15400054) in solution of DPBS at 37° C., and, once detached, transferred in the culturing medium. […] Cells were counted in a Neubauer chamber after labelling with Tripan-Blue.
Cells were incubated during 72 h in incubator under CO2 atmosphere at 37° C. Cell viability was measured by means of MTT (3-(4,5-dimethylthiazol-2-yl)-2,5-diphenyltetrazolium bromide) assay, Alamar Blue® (Biosource DAL1100) and Hexosaminidase activity test, consecutively, following manufacturer instructions. […]

The nature of data set [3]: Stability test in human plasma, LC MS/MS. The following applies: 37° C. Type of data set: in vitro ADME. The procedure: For the preparation of stock solutions, H14 was dissolved in water/acetonitrile (95/5, v/v) containing 0.1% formic acid to a concentration of 1.00 mg/mL. Further serial dilutions were carried out in plasma. The concentrations were calculated under consideration of purity.
For preparation of plasma samples, the human blank plasma were fortified with the stock solution using a ratio of 1:100 to obtain a sample with 10.0 μg/mL which was subsequently serial-diluted in human blank plasma.
A volume of 300 μL of human plasma samples for the two peptide concentrations (100 ng/mL and 1000 ng/mL) were transferred to an empty 96 deep well plate. The plate was incubated at 37° C. in a thermomixer at approximately 700 rpm. At selected incubation time points of 0 h, 1 h, 2 h, 4 h, 6 h and 24 h, aliquots of plasma were precipitated with acetonitrile containing internal standard. To an aliquot of 20 μL human plasma samples, 40 μL of acetonitrile containing 1% formic acid and the internal standard was added. After vortex mixing for a few seconds, the samples were centrifuged for about 10 minutes at approximately 50000 g. The temperature of the centrifuge was set to 8° C. An aliquot of 30 μL of the supernatant was transferred to an autosampler vial for analysis using LC MS/MS.
The quantification of H14 was performed by column separation with reverse phase chromatography followed by detection with triple stage quadrupole MS/MS in the selected reaction monitoring mode.

Data set [4] concerns NCI-H69. Type of data set: cell-based. The following applies: 72 h. The procedure:
NCI-69, (small cell lung cancer, SCLC), ATCC-HTB-119;
as §3
(§4) During the amplification step and the assays, adherent cells were rinsed with DPBS (Dulbecco's Phosphate Buffered Saline, Sigma D1283) three times and afterward treated for 5 minutes with trypsin ([…]) (Gibco-BRL, 15400054) in solution of DPBS at 37° C., and, once detached, transferred in the culturing medium. […] Cells were counted in a Neubauer chamber after labelling with Tripan-Blue. […]
as §2
(§5) MTT: 1. […] Absorbance at 570 nm was finally measured. […]

The subject of data set [5] is NCI-H82. Type of data set: cell-based. The following applies: 72 h. The procedure:
NCI-H82, epithelial (small cell lung cancer, SCLC), ATCC-CRL-5811;
as §1
(§6) During the amplification step and the assays, adherent cells were rinsed with DPBS (Dulbecco's Phosphate Buffered Saline, Sigma D1283) three times and afterward treated for 5 minutes with trypsin ([…]) (Gibco-BRL, 15400054) in solution of DPBS at 37° C., and, once detached, transferred in the culturing medium. No-adherent cells were centrifuged and transferred in the culturing medium. Cells were counted in a Neubauer chamber after labelling with Tripan-Blue.
(§7) MCF-7, NCI-H187, NCI-H69, NCI-H526 and H5B cells were seeded at a density of 5000 cells/well; NCI-H524 and NCI-H82 were seeded at a density of 2500 cells/well; HL-60 and NCI-H510A at 10000 cells/well in 100 μl of medium in 96 well plates. After 24 h, the compounds to be tested were added to calculate the dose/response curve at the starting concentration of 100 μM with serial dilutions (1:1). Controls were the untreated cells. Each experiment was performed in triplicate.
as §2
(§8) MTT: 1. Stock solution of MTT (475989 Calbiochem) was 5 mg/ml in PBS 1×. As negative control (experiment noise) 3 wells were treated with 20 μl/well of a solution of SDS 10% in H2O. The same control was used for Alamar Blue/Hexosaminidase. 10 μl/well of MTT solution were added and the plate was incubated for 3-4 hr. The medium was discarded and 100 μl of extracting buffer (PBS 1×, 15% SDS, 50% […] N,N-Dimethylformamide, pH 4,7) were added to each well. Plates were incubated for 16 h at room temperature under orbital shaking. Absorbance at 570 nm was finally measured.
(§9) Alamar Blue: 10 μl Alamar Blue solution was added to each well and the plates were incubated for […] in the incubator. Fluorescence ratio at 535/590 (excitation/emission) was measured in Cytofluor (Millipore) fluorimeter. Blank control was determined by lysis of untreated cells with con 2% of Triton X100, right before adding Alamar Blue solution.
(§10) Hexosaminidase activity test: after Alamar Blue lecture, medium was discarded and plates were rinsed once with PBS. 60 μl hexosaminidase substrate (p-nitrophenol-N-acetyl-beta-D-glucosamide 7.5 mM [Sigma N-9376], sodium citrate 0.1 M, pH 5.0, 0.25% Triton X-100) was added to each well and the plates were incubated at 37° C. for 2-5 h, according to the cell type (hexosaminidase activity changes according to the cell type). […] Blank control was the same as described before.
(§11) Data analysis was performed calculating the percentage of cell viability normalized vs. the values of negative control, which was considered equal to 100%. The dose/response curve was fitted through the sigmoidal equation dose-response (variable slope) and the EC50 values were calculated as follow: Y=Bottom+(Top−Bottom)/(1+10^{[(Log EC50−X)*HillSlope]},

Data set [6] concerns NCI-H187. Type of data set: cell-based. The following applies: 72 h. How it is done:
NCI-H187, epithelial (small cell lung cancer, SCLC), ATCC-CRL-5804;
as §1, §6, §7, §2, §8, §9, §10, §11

Data set [7] has as its system MCF-7. Type of data set: cell-based. How it is done:
MCF-7, epithelial (breast cancer), ECACC: 86012803;
as §3, §4, §2, §5

Data set [8] deals with HL-60. Type of data set: cell-based. The procedure: HL-60, promyeloblast (acute myelocytic leukemia, AML), ECACC: 98070106;
as §3, §4, §2, §5

The structures appear in SMILES notation. Numbered stars: 1 amine (or outer) side, 2 acyl side, 3 side chain; on linkers, the order of the positions; unused ones are H or OH. Bridge positions count the residues as written; N and C are the ends. Square brackets hold non-standard residues; d marks the D form. Peptide text beside a SMILES is read from it. ξ: configuration not given here. ξαMeNle(6-ylidene) = CC(CCCC=[*:3])(N[*:1])C(=O)[*:2]; X1 = CC(CCCCCCC=[*:3])(N[*:1])C(=O)[*:2]

Take `CC(C)C[C@H](NC(=O)[C@H](CCCCN)NC(=O)[C@@H](NC(=O)[C@@H](N)CCCNC(=N)N)C(C)C)C(=O)N[C@H](C(=O)N[C@@H](CC(N)=O)C(=O)N[C@@H](CC(C)C)C(=O)NC1(C)CCCCCCC=CCCCC(C)(C(=O)N[C@H](C(=O)N2CCC[C@H]2C(N)=O)C(C)C)NC(=O)[C@H](CCC(=O)O)NC(=O)[C@H](CCCNC(=N)N)NC(=O)[C@H](CC(C)C)NC(=O)[C@H]([C@@H](C)O)NC(=O)[C@H](C)NC(=O)[C@H](Cc2ccccc2)NC1=O)C(C)C` (stereo partly shown) [H14] (H-RVKLVNL[X1]FATLRE[ξαMeNle(6-ylidene)]VP-NH2; staple 8-15; N-terminus and C-terminus assumed): the EC50 – broadly, the concentration that produces a half-maximal response – in data set [1] is about 12.5 µM; in data set [2] it was about 5 µM; in data set [4], about 7 µM; in data set [5], about 12.5 µM; in data set [6], about 10 µM; in data set [7], about 9 µM. The same compound had an EC50 in data set [8] of about 14 µM. Further, the “H14 amount (% peak area)” value in data set [3] (100 ng/mL, 0 h) is 100 % peak area; in data set [3] (100 ng/mL, 2 h) it was 96.1 % peak area; in data set [3] (1000 ng/mL, 0 h), 100 % peak area. In addition, the remaining at 1 h, 100 ng/mL in data set [3] (100 ng/mL, 1 h, read-out: H14 amount (% peak area)) is 96.1%. For the same compound, the remaining at 4 h, 100 ng/mL in data set [3] (100 ng/mL, 4 h, read-out: H14 amount (% peak area)) is 102%. In addition, in data set [3] (100 ng/mL, 6 h, read-out: H14 amount (% peak area)), the remaining at 6 h, 100 ng/mL turned out to be 97.2%. The remaining at 24 h, 100 ng/mL in data set [3] (100 ng/mL, 24 h, read-out: H14 amount (% peak area)) is 108%. Moreover, in data set [3] (1000 ng/mL, 1 h, read-out: H14 amount (% peak area)), the remaining at 1 h, 1000 ng/mL amounted to 101%. In data set [3] (1000 ng/mL, 2 h, read-out: H14 amount (% peak area)), the remaining at 2 h, 1000 ng/mL came out at 94.9%. Moreover, the remaining at 4 h, 1000 ng/mL in data set [3] (1000 ng/mL, 4 h, read-out: H14 amount (% peak area)) turned out to be 95.4%. In addition, the remaining at 6 h, 1000 ng/mL in data set [3] (1000 ng/mL, 6 h, read-out: H14 amount (% peak area)) is 99.9%. Further, the remaining at 24 h, 1000 ng/mL in data set [3] (1000 ng/mL, 24 h, read-out: H14 amount (% peak area)) came out at 101%.
